Where “and” joins values, the source holds several entries; their conditions need not be identical. Equal entries are not always repeated. Toxic doses and inconclusive results are not listed. Cut-off read from the data, not from the text of the source: active = T/C of 150% or more; inactive = T/C below 125%.
Test system: L1210 leukemia ip in BDF1 mice, survival T/C
Experiment: NCI In Vivo Anticancer Drug Screen. Data for tumor model L1210 Leukemia (intraperitoneal) in B6D2F1 (BDF1) mice
Details: endpoint: mean survival time, higher = longer survival
Outline: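 Read-out is survival time, reported as the treated-group measurement over the vehicle-control measurement.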

[1] = dose: 100.0 mg/kg/injection, schedule: Q01DX009 (ip), vehicle: Klucel (hydroxypropylcellulose) (HPC)
[2] = dose: 200.0 mg/kg/injection, schedule: Q01DX009 (ip), vehicle: Klucel (hydroxypropylcellulose) (HPC)
[3] = dose: 400.0 mg/kg/injection, schedule: Q01DX009 (ip), vehicle: Klucel (hydroxypropylcellulose) (HPC)
[4] = dose: 100.0 mg/kg/injection, schedule: Q04DX003 (ip), vehicle: saline with Tween-80
[5] = dose: 200.0 mg/kg/injection, schedule: Q04DX003 (ip), vehicle: saline with Tween-80
[6] = dose: 400.0 mg/kg/injection, schedule: Q04DX003 (ip), vehicle: saline with Tween-80
[7] = dose: 100.0 mg/kg/injection, schedule: Q01DX001 (ip), vehicle: Klucel (hydroxypropylcellulose) (HPC)
[8] = dose: 100.0 mg/kg/injection, schedule: Q04DX002 (ip), vehicle: Klucel (hydroxypropylcellulose) (HPC)
[9] = dose: 100.0 mg/kg/injection, schedule: Q04DX003 (ip), vehicle: Klucel (hydroxypropylcellulose) (HPC)
[10] = dose: 200.0 mg/kg/injection, schedule: Q01DX001 (ip), vehicle: Klucel (hydroxypropylcellulose) (HPC)
[11] = dose: 200.0 mg/kg/injection, schedule: Q04DX002 (ip), vehicle: Klucel (hydroxypropylcellulose) (HPC)
[12] = dose: 200.0 mg/kg/injection, schedule: Q04DX003 (ip), vehicle: Klucel (hydroxypropylcellulose) (HPC)
[13] = dose: 400.0 mg/kg/injection, schedule: Q01DX001 (ip), vehicle: Klucel (hydroxypropylcellulose) (HPC)
[14] = dose: 100.0 mg/kg/injection, schedule: Q01DX001 (ip), vehicle: carboxymethylcellulose (CMC)
[15] = dose: 200.0 mg/kg/injection, schedule: Q01DX001 (ip), vehicle: carboxymethylcellulose (CMC)
[16] = dose: 50.0 mg/kg/injection, schedule: Q01DX009 (ip), vehicle: Klucel (hydroxypropylcellulose) (HPC)
[17] = dose: 100.0 mg/kg/injection, schedule: Q01DX009 (ip), vehicle: saline with Tween-80
[18] = dose: 200.0 mg/kg/injection, schedule: Q01DX009 (ip), vehicle: saline with Tween-80
[19] = dose: 400.0 mg/kg/injection, schedule: Q01DX009 (ip), vehicle: saline with Tween-80

Measured: T/C

COC(=O)/C=C/c1ccc(Cl)cc1
inactive: [1] 98 % of control | [2] 96 % of control | [3] 96 % of control

CCCC(CCC)(C(N)=O)C(=O)O
inactive: dose: 100.0 mg/kg/injection, schedule: Q01DX009 (ip), vehicle: saline 102 % of control | dose: 200.0 mg/kg/injection, schedule: Q01DX009 (ip), vehicle: saline 100 % of control | dose: 400.0 mg/kg/injection, schedule: Q01DX009 (ip), vehicle: saline 92 % of control

CCn1c(=S)[nH]c(=O)c2n[nH]nc21
inactive: [4] 88 % of control | [5] 89 % of control | [6] 93 % of control

Cc1ccc(N=C(N)NC#N)cc1C
inactive: [4] 102 % of control | [5] 102 % of control | [6] 102 % of control

CN(CC(O)CN)c1ccc(Cl)cc1 (centres undefined)
inactive: dose: 25.0 mg/kg/injection, schedule: Q01DX001 (ip), vehicle: saline with Tween-80 104 % of control | dose: 50.0 mg/kg/injection, schedule: Q01DX001 (ip), vehicle: saline with Tween-80 101 % of control | dose: 100.0 mg/kg/injection, schedule: Q01DX001 (ip), vehicle: saline with Tween-80 100 % of control and 103 % of control

CCCCCCCCC(C)c1ccccc1O (centres undefined)
inactive: [1] 104 % of control | [2] 101 % of control | [3] 112 % of control

COc1ccc(COC(=O)Nc2cccc(Cl)c2)cc1
inactive: [7] 111 % of control | [1] 93 % of control and 97 % of control | [8] 100 % of control | [9] 108 % of control | [10] 101 % of control | [2] 90 % of control and 92 % of control | [11] 104 % of control | [12] 102 % of control | [13] 95 % of control | [3] 93 % of control and 90 % of control | dose: 400.0 mg/kg/injection, schedule: Q04DX003 (ip), vehicle: Klucel (hydroxypropylcellulose) (HPC) 111 % of control

CC(=O)N/C(=C\c1ccccc1)C(N)=O
inactive: [4] 91 % of control | [5] 97 % of control | [6] 96 % of control

COC1OC2COC(c3ccccc3)OC2C(OC)C1OC (centres undefined)
inactive: dose: 12.5 mg/kg/injection, schedule: Q04DX002 (ip), vehicle: Klucel (hydroxypropylcellulose) (HPC) 100 % of control | dose: 25.0 mg/kg/injection, schedule: Q04DX002 (ip), vehicle: Klucel (hydroxypropylcellulose) (HPC) 91 % of control | dose: 50.0 mg/kg/injection, schedule: Q04DX002 (ip), vehicle: Klucel (hydroxypropylcellulose) (HPC) 103 % of control and 91 % of control | [8] 108 % of control | [11] 95 % of control

[C-]#[N+]C(C)(c1ccccc1)c1ccccc1
inactive: dose: 12.5 mg/kg/injection, schedule: Q01DX001 (ip), vehicle: acetone 92 % of control | dose: 25.0 mg/kg/injection, schedule: Q01DX001 (ip), vehicle: acetone 95 % of control | dose: 50.0 mg/kg/injection, schedule: Q01DX001 (ip), vehicle: acetone 110 % of control

COc1ccc(-c2ccns2)cc1
inactive: [14] 93 % of control | [15] 92 % of control

CC(=O)Nc1ccc(NC(=S)Nc2ccc(NC(C)=O)cc2)cc1
inactive: [16] 101 % of control | [1] 104 % of control | [9] 97 % of control | [12] 93 % of control

O=S1(=O)C=C(Br)C1
inactive: [8] 94 % of control and 106 % of control | [11] 106 % of control

CCOC(=O)C(Cc1c[nH]c2ccccc12)(NC(C)=O)C(=O)OCC
inactive: [17] 88 % of control | [18] 90 % of control | [19] 94 % of control

Cc1cc2c3ccccc3[nH]c(=O)n2n1
inactive: [17] 96 % of control | dose: 100.0 mg/kg/injection, schedule: Q04DX003 (ip), vehicle: saline 100 % of control | [18] 95 % of control | dose: 200.0 mg/kg/injection, schedule: Q04DX003 (ip), vehicle: saline 96 % of control | [19] 86 % of control | dose: 400.0 mg/kg/injection, schedule: Q04DX003 (ip), vehicle: saline 87 % of control

Cc1c(CBr)c2ccccc2[nH]c1=O
inactive: dose: 100.0 mg/kg/injection, schedule: Q01DX001 (ip), vehicle: other 97 % of control | dose: 200.0 mg/kg/injection, schedule: Q01DX001 (ip), vehicle: other 108 % of control

COc1ccc(/C(C#N)=C2\OC(=O)c3ccccc32)cc1OC
inactive: [14] 89 % of control | [15] 94 % of control | dose: 400.0 mg/kg/injection, schedule: Q01DX001 (ip), vehicle: carboxymethylcellulose (CMC) 89 % of control

CC1=CCC=C(CNc2ncnc3nc[nH]c23)C1
inactive: dose: 25.0 mg/kg/injection, schedule: Q01DX009 (ip), vehicle: saline with Tween-80 95 % of control | dose: 25.0 mg/kg/injection, schedule: Q04DX003 (ip), vehicle: saline with Tween-80 94 % of control | dose: 50.0 mg/kg/injection, schedule: Q01DX009 (ip), vehicle: saline with Tween-80 93 % of control | dose: 50.0 mg/kg/injection, schedule: Q04DX003 (ip), vehicle: saline with Tween-80 97 % of control | [4] 101 % of control

O=c1[nH]c2ccc([N+](=O)[O-])cc2c2nc3ccccc3n12
inactive: [16] 95 % of control | [1] 101 % of control | [2] 95 % of control

COc1ccc(OC)c(N(CCN2C(=O)c3ccccc3C2=O)C(=O)C2CCC(=O)C2C)c1 (centres undefined)
inactive: dose: 100.0 mg/kg/injection, schedule: Q04DX002 (ip), vehicle: saline with Tween-80 100 % of control | dose: 200.0 mg/kg/injection, schedule: Q04DX002 (ip), vehicle: saline with Tween-80 103 % of control | dose: 400.0 mg/kg/injection, schedule: Q04DX002 (ip), vehicle: saline with Tween-80 97 % of control

O=C(O)c1cc2ccccc2oc1=O
inactive: dose: 10.0 mg/kg/injection, schedule: Q01DX009 (ip), vehicle: Klucel (hydroxypropylcellulose) (HPC) 101 % of control | [7] 95 % of control | [10] 97 % of control | [13] 98 % of control

Oc1ccc(/C=N/Nc2nnc(N/N=C/c3ccc(O)c(O)c3)c3ccccc23)cc1O
inactive: dose: 50.0 mg/kg/injection, schedule: Q01DX001 (ip), vehicle: saline 97 % of control | dose: 100.0 mg/kg/injection, schedule: Q01DX001 (ip), vehicle: saline 92 % of control | dose: 200.0 mg/kg/injection, schedule: Q01DX001 (ip), vehicle: saline 97 % of control | dose: 400.0 mg/kg/injection, schedule: Q01DX001 (ip), vehicle: saline 97 % of control

CCCCC(CC)CSCC(CC)CCCC (centres undefined)
inactive: dose: 100.0 mg/kg/injection, schedule: Q04DX003 (ip), vehicle: saline sonified 97 % of control | dose: 200.0 mg/kg/injection, schedule: Q04DX003 (ip), vehicle: saline sonified 93 % of control | dose: 400.0 mg/kg/injection, schedule: Q04DX003 (ip), vehicle: saline sonified 97 % of control
